Assay type in all cases: cell-based
Test [1] has as its system Panc-1 human pancreatic cancer cells. The experiment in a line: cancer cell adhesion, visual retraction of cells. As to conditions: 24 hours, light microscopy. Here is the method: (§1) In these experiments, Panc-1 human pancreatic cancer cells were maintained in Dulbecco's minimum essential medium supplemented with 10% fetal calf serum at 37° C. in 5% CO2 in air. All culture reagents were purchased from Invitrogen (Burlington, ON). Panc-1 cells (ATCC CRL-1469) were plated at 20,000 cells per well of a 4-well tissue culture slide (NalgeNunc, Naperville, Ill.). After 24 hours of culture, cells were treated for 24 hours with medium containing varying concentrations of compounds 15 and 16 dissolved in dimethylsulfoxide (DMSO; final concentration of 1% DMSO in the medium), or 1% DMSO alone in the medium and then fixed with 4% paraformaldehyde dissolved in phosphate buffered saline and stained with hematoxylin. Disruption of cell adhesion was determined visually within 24 hours, by observing retraction of the cells from one another.

Test [2] shares this test system. The experiment in a line: cell death, trypan blue exclusion count. Conditions: 24 hours. Here is the method:
as §1
In order to determine the effect of the compounds on cell death, the medium was aspirated from the treated and untreated cultures and the non-adherent cells collected by centrifugation (1000 rpm for 5 min). The cells were resuspended in phosphate buffered saline and combined with trypan blue (Sigma). Cells were then put in a hemocytometer and the number of cells that excluded the trypan blue counted using a microscope to determine the number of live cells.

The test system of test [3] is 3D spheroid N-cadherin mouse fibroblast (LN5) cells. The test can be described thus: hanging drop 3D spheroid cell culture assay. Conditions: hanging drops incubated 48 h. Here is the method:
In these experiments, a total of 2×10^6 originally noncohesive embryonic mouse L929 fibroblasts (L cells) were transfected by electroporation in 400 μl transfection medium (RPMI 1640, 1% dextrose, 1 mM β-mercaptoethanol) with 40 μg pMiwcN chicken N-cadherin expression vector (Miyatani, S., et al., Science, 1989, 245, 631-635; Fujimori T., et al., Development, 1990, 110. 97-104). Neomycin resistance (pwlneo, GIBCO) was included for G418 selection. Transfected cells were diluted 1/100 and placed in medium containing 800 μg/ml G418 (GIBCO). Resistant cells were grown to confluence, detached by trypsin/Ca^2+ treatment, and stained with an anti-chicken N-cadherin antibody (NCD2, Zymed) on ice for 45 min. After several washes in Hanks' balanced salt solution, cells were mixed with a fluorescein isothiocyanate-conjugated secondary antibody and placed on ice for 30 min. N-cadherin-expressing cells were then autocloned into 96-well plates by using the CloneCyt Integrated Deposition System (Becton-Dickinson Immunocytometry Systems). Positive clones were reanalyzed by FACS and the L cell line LN5 was propagated for these studies.
The 3D spheroids were generated as follows. Cells were removed from near-confluent plates with TC (0.05% trypsin and 2 mM Ca^2+ in Hank's solution for 5-10 minutes), washed once with 1 mL 4° C. Hank's solution, and suspended at a concentration of 2.5×10^6 cells/ml in complete MEM supplemented with 2 mM CaCl2 and varying concentrations of N-cadherin antagonists (Crocus Laboratories, Montreal, Quebec, Canada). The antagonists were compound 15 (MW=499.43) and compound 16 (MW=499.43). Stock solutions of the antagonists were prepared by dissolving the antagonists in DMSO at concentrations of 30 mM. Controls were made by suspending the cells as described above in the absence of antagonists with only the respective amount of DMSO added. Drops of the cell suspensions (10 microliters each) were deposited on the underside of a 10 cm tissue culture dish lid. The lid was then inverted and placed on dish containing 5 ml of PBS for hydration. Hanging drops were incubated under tissue culture conditions for 48 h, allowing the cells to coalesce at the base of the droplets and to form multi-layer aggregates. The tissue culture dish lid was then removed and the medium was gently aspirated. Aggregates (N=10-20) where then photographed under 4× lens and cell area was analyzed using ImageJ. Statistical differences were determined using ANOVA and Tukey's multiple comparison test.
Each of the antagonists tested from Crocus Laboratories contained cadherin antagonist properties at different potency levels. We determined the approximate minimum concentration needed for an anti-adhesion dose response on 3D spheroid N-cadherin mouse fibroblast (LN5) cells. […]

Take `COc1ccc(OC[C@@H](O)CNC2CCN(C[C@@H](O)COc3ccc(Cl)c(Cl)c3)CC2)cc1` [Compound 16, (R)-1-(3,4-Dichlorophenoxy)-3-(4-((S)-2-hydroxy-3-(4-methoxyphenoxy)propylamino)piperidin-1-yl)propan-2-ol]: the “disruption of cell adhesion” value in test [1] (0.1 μM), in test [1] (1 μM), in test [1] (10 μM) and in test [1] (100 μM) was “disrupted cell adhesion” throughout. The “cell death in comparison to the control” value in test [2] (1 μM), in test [2] (10 μM) and in test [2] (100 μM) was “caused cell death” in each case. Also, in test [3], the “concentration at which complete disruption occurred” value is 75 µM. Moreover, in test [3], the “minimum concentration required to observe cohesion disruption” value worked out at 50 µM.

The values above are taken from patent US10647672B2, “Modulators of cell adhesion, methods and compositions therefor” (Zonula Incorporated, priority 2017, dated 2020).
